Assay results from US20240209456A1, “METHODS AND COMPOSITIONS RELATED TO CELL-CYCLE RNA's” (BETH ISRAEL DEACONESS MEDICAL CENTER, priority 2021, published 2024).
*1 amine or outer side, *2 acyl side, *3 side chain or, on linkers, in order; H or OH if unused. Where a SMILES comes first, the peptide text is derived from it. Bridges are numbered along the chain shown (N, C = ends). Roman numbers before positions name the chains, in order. [ ]: non-standard residue; d: D form. Actinocin(9to1) = Cc1c2oc3c(C)ccc(C(=O)[*:1])c3nc-2c(C(=O)[*:2])c(N)c1=O; NMeV = CN[C@H](C(=O)O)C(C)C; Sar = CNCC(=O)O

Tests used:
MYB SPEARs = test: qRT-PCR of MYB SPEARs; assay type: cell-based, human; settings: HL-60, DRB and ActD, FIG. 10C
Description: Total RNA isolation was carried out and all RNA samples used in this study were treated with DNase I (10 U of DNase I per 3 μg of total RNA; 37° C. for one hour; in the presence of RNase inhibitor). After DNase I treatment, RNA samples were extracted with acidic phenol (pH 4.3) to eliminate any remaining traces of DNA. cDNA syntheses were performed with Random Primers (Invitrogen) or gene-specific primers with Transcriptor Reverse Transcriptase (Roche Applied Science) according to the manufacturer's recommendation. cDNA was purified with a High Pure PCR Product Purification Kit (Roche Applied Science).
Sybr green reaction was performed using iQ Sybr Green supermix (Biorad, Hercules, CA) using the following parameters: 95° C. (10 min), 40 cycles of 95° C. (15 s) and 60° C. (1 min) 72° C. (1 min). TaqMan analysis was performed using Hotstart Probe One-step qRT-PCR master mix (USB) at the following conditions: 50° C. (10 min.), 95° C. (2 min.), and then 40 cycles of 95° C. (15 sec.) and 60° C. (60 sec.).

H2A.Z = test: ChIP-Seq with H2A.Z antibody, occupancy at TSSs; assay type: cell-based, human; settings: for number of TSS with comparable (2-fold) decrease in total H2A.Z occupancy: HL-60, 2 hr treatment, vs cells without treatment, 38,512 TSS compared; for occupancy levels of unmodified H2A.Z at the TSS, genome-wide / H2A.Z peak intensity ratio, PU.1 locus (DMSO = 1) / H2A.Z peak intensity ratio, c-MYC locus (DMSO = 1): HL-60, 2 hr; for occupancy levels of unmodified H2A.Z at the TSS, genome-wide: vs mock-treated (DMSO), FIG. 4C; for H2A.Z peak intensity ratio, PU.1 locus (DMSO = 1) / H2A.Z peak intensity ratio, c-MYC locus (DMSO = 1): [DMSO/DRB/ActD]
Source text: Two transcription inhibitors, Actinomycin D (ActD; RNA Polymerase I, II and III inhibitor) and 5,6-Dichlorobenzimidazole 1-β-D-ribofuranoside (DRB; RNAPII Inhibitor), were used at concentrations sufficient to block both RNA Polymerases II and III. Cells were synchronized with a double thymidine block and released into S Phase with ActD/DRB added. The rationale behind the use of ActD and DRB is: (i) to globally assess the effect of SPEARs suppression over a short time frame; (ii) to test effects resulting from the two different pathways triggered by ActD and DRB; and (iii) to take advantage of the reversibility of DRB treatment. […] Two hours after drug treatment, cells were crosslinked and subjected to ChIP-Seq analyses. […] Relative changes were then investigated in the footprints of unmodified H2A.Z and acH2A.Z in the vicinity of TSSs that result from DRB- and ActD-induced inhibition of SPEARs. The enrichments of ChIP-Seq signals for H2A.Z and acH2A.Z around 38,512 TSS (defined in the hg38 UCSC canonical gene table) following drug treatment were then compared with their occupancy in mock-treated (DMSO) cells. […] ActD-treated cells followed this pattern with a greater than 2-fold decrease in the levels of acH2A.Z at 6,283 TSS compared to untreated samples. […] For the c-MYC and PU1 loci, respectively, the ratios of control (DMSO) to drug treated H2A.Z peak intensities were: [DMSO/DRB/ActD]^c-MYC=1/0.76/0.67 and [DMSO/DRB/ActD]^PU.1=1/0.87/0.82; and the ratios of control (DMSO) to drug treated acH2A.Z peak intensities were: [DMSO/DRB/ActD]^c-MYC=1/0.62/0.36 and [DMSO/DRB/ActD]^PU.1=1.0/0.25/0.13. […] For MYB the ratios of control (DMSO) to drug treated acH2A.Z peak intensities are: [DMSO/DRB/ActD]^MYB=0.62/0.89/1.0, which corresponds to the increases in its SPEARs levels (FIG. 10C).
Double Thymidine block (early S-phase block) was carried out as described. Briefly, HL-60 cells were grown overnight to 70-80% confluence, washed twice with 1×PBS and cultured in DMEM (10% FCS)+2.5 mM Thymidine for 18 h (first block). Thymidine was washed out with 1×PBS and cells were grown in DMEM (10% FCS). After 8 hrs cells were cultured in the presence of thymidine for 18 h (second block) and then released as described. Synchrony was monitored by flow cytometry analysis of propidium iodide-stained cells using a LSRII flow cytometer (BD Biosciences) at the Harvard Stem Cell Institute/Beth Israel Deaconess Center flow cytometry facility.
DRB and Actinomycin D treatments were carried out as described. Briefly, after release from double thymidine block, HL-60 cells were treated with 100 μM of 5,6-Dichlorobenzimidazole 1-β-D-ribofuranoside (DRB) (Sigma Aldrich) or 0.8 μM of Actinomycin D (Sigma Aldrich) as indicated at each time point.
ChIP was performed as follows. Cells were crosslinked with 1% formaldehyde for 10 min at r.t. Pellets of 1×10^6 cells were used for immunoprecipitation and lysed for 10 minutes on ice and chromatin fragmented using a Branson 250 digital sonicator. Each ChIP was performed with 4 ug of antibody, incubated overnight at 4° C. A 50/50 slurry of protein A and protein G Dynabeads was used to capture enriched chromatin, which was then washed before reverse-crosslinking and proteinase K digestion at 65° C. AMPure XP beads were used to clean up and isolate ChIP DNA for subsequent library construction. The following antibodies were used for ChIP: H2A.Z (Abcam ab4174, lot GR3176820-1), acH2A.Z (Abcam ab18262, lot GR306397-1), TIP60 antibody; and IgG (Abcam ab171870). Fold enrichment was calculated using the formula 2^(−ΔΔCt(ChIP/non-immune serum)). Primer sets used for ChIP are listed in Table 2. nRIP was performed and crosslinked nuclei were collected as follows: 1. 60×10^6 HL-60 cells were crosslinked with 1% formaldehyde (formaldehyde solution, freshly made: 50 mM HEPES-KOH; 100 mM NaCl; 1 mM EDTA; 0.5 mM EGTA; 11% formaldehyde) for 10 min at room temperature. […]

Compound | MYB SPEARs level upon transcription inhibitors (MYB SPEARs) | number of TSS with comparable (2-fold) decrease in total H2A.Z occupancy (H2A.Z) | occupancy levels of unmodified H2A.Z at the TSS, genome-wide (H2A.Z) | H2A.Z peak intensity ratio, PU.1 locus (DMSO = 1) (H2A.Z) | H2A.Z peak intensity ratio, c-MYC locus (DMSO = 1) (H2A.Z)
Cc1c2oc3c(C)ccc(C(=O)N[C@@H]4C(=O)N[C@H](C(C)C)C(=O)N5CCC[C@H]5C(=O)N(C)CC(=O)N(C)[C@@H](C(C)C)C(=O)O[C@@H]4C)c3nc-2c(C(=O)N[C@@H]2C(=O)N[C@H](C(C)C)C(=O)N3CCC[C@H]3C(=O)N(C)CC(=O)N(C)[C@@H](C(C)C)C(=O)O[C@@H]2C)c(N)c1=O [ActD, Actinomycin D] (I: T[dV]P[Sar][NMeV] / II: T[dV]P[Sar][NMeV]; ester I:1-I:C, II:1-II:C; linker I:N-II:N via Actinocin(9to1)) | positively affected | 650 TSS | only modest changes | 0.82 | 0.67
OC[C@H]1O[C@@H](n2cnc3cc(Cl)c(Cl)cc32)[C@H](O)[C@@H]1O [DRB, 5,6-Dichlorobenzimidazole 1-β-D-ribofuranoside] | positively affected | 398 TSS | only modest changes | 0.87 | 0.76
